Reference: patent US20100041089A1, “IMPROVED METHOD FOR DETECTING CHEMICAL […]” (priority 2006, published 2010)

Test system: promoter of yeast gene YKL071w
Test: Dissolved oxygen measurement with oxygen electrode using yeast transformed with YKL071w promoter linked to oxidase (pyridoxamine phosphate substrate)
Assay type: cell-based, Saccharomyces cerevisiae W303
Settings: sample solutions A, B, C with 0.0053, 0.053, 0.53 ppm versus standard solution S; FIG. 4
Procedure: Primers for PCR to amplify the polynucleotide comprising the promoter of yeast gene YKL071w were prepared. Primers were designed using a primer design software, Oligo4.0-S, Sequencher I Mackintosh version. The base sequence of the upper primer was:
For PCR, yeast chromosome (Saccharomyces cerevisiae S288C, Cat.40802, Research Genetics, Inc.) was used as template, and the commercially available kit (KOD DNA Polymerase; Code KOD-101, Toyobo) was used as reagents. […]
The yeast in a steady state is diluted 500 times with the SD medium, and it is shake cultured at 25° C. for 15 hours. After confirming the logarithmic growth phase at which absorbance at 600 nm is within 0.2 to 0.5, different concentrations of TPN is loaded. […]
By comparing a temporal change in a measured current value for the sample solution A, B or C and a temporal change in a measured current value for the standard solution S, an amount of pyridoxamine phosphate oxidase produced by stimulation of the chemical substance (TPN) in respective solutions for measurement may be determined and, thereby, existence or a quantity of the chemical substance may be detected.

Question: For `N#Cc1c(Cl)c(Cl)c(Cl)c(C#N)c1Cl` [(9), 2,4,5,6-Tetrachloro-1,3-benzenedicarbonitrile], which “Temporal change in current value for dissolved oxygen measurement” value is on record?
Answer: as the concentration of the chemical substance (TPN) becomes larger, a decreasing rate of a current value at an initial stage becomes larger and a steady state value after reaching a plateau becomes lower
